Experiments:
recombinant Aurora A = biological target: T1, recombinant Aurora A (Homo sapiens, UniProt O14965); test: Aurora A (Aurora 2) inhibition assay, Z'-Lyte kinase assay; assay type: biochemical; settings: ATP 10 μM, 1 h
T1 construct: purchased Upstate, Lake Placid, N.Y
T1 sequence (O14965 1-403): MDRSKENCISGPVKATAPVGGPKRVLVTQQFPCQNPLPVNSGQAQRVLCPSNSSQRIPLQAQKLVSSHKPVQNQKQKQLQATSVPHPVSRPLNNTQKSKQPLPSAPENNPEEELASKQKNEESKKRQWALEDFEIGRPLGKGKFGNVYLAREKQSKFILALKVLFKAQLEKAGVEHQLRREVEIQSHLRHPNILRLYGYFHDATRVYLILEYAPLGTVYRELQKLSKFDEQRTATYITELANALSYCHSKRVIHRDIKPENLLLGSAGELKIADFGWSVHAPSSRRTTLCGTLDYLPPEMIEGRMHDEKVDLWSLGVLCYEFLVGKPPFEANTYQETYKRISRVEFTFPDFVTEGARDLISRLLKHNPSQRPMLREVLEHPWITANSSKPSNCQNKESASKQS
Experimental: Compounds were tested for their potency against recombinant Aurora A (Upstate, Lake Placid, N.Y.) using the PanVera Z′-Lyte kinase assay kit—Ser/Thr 1 peptide (Invitrogen, Carlsbad, Calif.). Assays were carried out in kinase assay buffer (50 mM HEPES, pH 7.5, 10 mM MgCl2, 5 mM EGTA, 0.05% Brij-35, 2 mM DTT). Test compounds were initially dissolved in DMSO at 100× the highest tested concentration, then serially diluted to 4× test concentrations in kinase assay buffer. Next, Aurora A (final concentration 200-500 ng/mL), Z′-Lyte Ser/Thr 1 peptide (final concentration 2 μM) and ATP (final concentration 10 μM) were added according to the manufacturer's instructions. Assays were carried out in half-area 96-well white polystyrene assay plates (Corning, Corning, N.Y.) in a final volume of 20 μl. The reaction was allowed to proceed for 1 h at room temperature in the dark, at which point the development reagent and stop reagent were added according to the manufacturer's instructions. Coumarin (Ex. 400 nm, Em. 465 nm) and fluorescein (Ex. 400 nm, Em. 565 nm) fluorescence values were measured on a SpectraFluor Plus plate reader (Tecan, Durham, N.C.). The emission ratio (coumarin/fluorescein) was determined and used to calculate the percent phosphorylation for each well. Wells containing substrate but no kinase and wells containing a phosphopeptide control were used to set 0% and 100% phosphorylation values, respectively. Typically 20-40% of the substrate was phosphorylated in wells without inhibitor. Dose-response curves of relative Aurora A activity vs. inhibitor concentration were plotted with Grafit (Erithacus Software, Horley, Surrey, UK).

[1] = biological target: T2, N-terminal His-tagged human Src (Homo sapiens, UniProt P12931); test: Src kinase inhibition assay (33P-ATP filter assay); assay type: biochemical; settings: 40 minutes at room temperature
T2 construct: His (N); purchased Upstate USA Inc, 706 Forest Street, Charlottesville, Va

[2] = biological target: T3, N-terminal His6-tagged recombinant human KDR, residues 790-end (Homo sapiens, UniProt P35968); test: KDR kinase inhibition assay (33P-ATP filter assay); assay type: biochemical
T3 construct: recombinant human KDR, residues 790-end; His6 (N); purchased Upstate USA Inc, 706 Forest Street, Charlottesville, Va
In short: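 Radiometric filter assay: reaction started with Mg acetate (10 mM)/[γ-33P]ATP mix, run 40 min at room temperature in 8 mM MOPS pH 7.0 with 0.2 mM EDTA, MBP substrate (0.33 mg/mL) and recombinant KDR 790-end (5-10 mU). Phosphate incorporation by scintillation counting of P30 filtermats, compared with uninhibited reactions.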

HCT116 cells = test: Whole cell cytotoxicity assay, Sulforhodamine B; assay type: cell-based; settings: Homo sapiens, HCT-116, HCT116, 96 hours incubation, SRB
In short: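 HCT116 cells (500/well) in DMEM/10% FBS/2 mM glutamine were preincubated 24 h, then exposed to compound for 96 h at 37 °C, 5% CO2, in duplicate. Cells were fixed with TCA and stained with sulforhodamine B (A570). GI50, TGI and LC50 were derived relative to a time-zero plate and an untreated control.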

[3] = group with IC50 greater than 100 nM

T3 sequence (P35968 790-1356 limits assumed): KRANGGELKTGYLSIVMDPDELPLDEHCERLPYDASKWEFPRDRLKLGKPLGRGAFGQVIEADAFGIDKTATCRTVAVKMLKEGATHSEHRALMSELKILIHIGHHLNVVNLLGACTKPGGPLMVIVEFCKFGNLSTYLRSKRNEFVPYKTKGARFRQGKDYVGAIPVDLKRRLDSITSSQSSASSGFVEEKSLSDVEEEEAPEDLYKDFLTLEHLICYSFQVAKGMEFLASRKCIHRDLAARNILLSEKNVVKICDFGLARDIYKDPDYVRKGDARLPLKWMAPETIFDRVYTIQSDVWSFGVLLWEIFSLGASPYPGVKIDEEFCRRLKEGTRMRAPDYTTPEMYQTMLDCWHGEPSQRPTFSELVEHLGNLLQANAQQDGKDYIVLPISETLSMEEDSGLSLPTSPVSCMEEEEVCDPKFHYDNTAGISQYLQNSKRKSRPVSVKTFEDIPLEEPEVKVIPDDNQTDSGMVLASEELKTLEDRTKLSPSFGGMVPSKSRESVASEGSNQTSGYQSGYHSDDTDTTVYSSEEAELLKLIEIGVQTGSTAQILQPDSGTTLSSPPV
T2 sequence (P12931 whole entry): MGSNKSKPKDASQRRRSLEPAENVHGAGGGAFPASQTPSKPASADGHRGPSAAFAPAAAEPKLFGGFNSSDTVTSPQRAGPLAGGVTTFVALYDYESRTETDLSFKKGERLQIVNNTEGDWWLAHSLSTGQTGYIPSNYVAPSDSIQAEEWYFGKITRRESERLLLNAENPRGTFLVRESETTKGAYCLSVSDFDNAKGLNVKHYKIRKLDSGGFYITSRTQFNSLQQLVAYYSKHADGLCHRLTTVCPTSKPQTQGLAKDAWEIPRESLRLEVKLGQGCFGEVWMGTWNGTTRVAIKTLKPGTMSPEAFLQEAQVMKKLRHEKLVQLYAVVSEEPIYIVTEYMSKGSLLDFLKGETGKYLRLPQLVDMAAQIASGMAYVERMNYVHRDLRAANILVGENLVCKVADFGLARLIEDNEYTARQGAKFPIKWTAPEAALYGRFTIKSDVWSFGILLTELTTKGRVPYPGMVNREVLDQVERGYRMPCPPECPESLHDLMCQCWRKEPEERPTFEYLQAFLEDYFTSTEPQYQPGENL

IC50 (recombinant Aurora A; [3]) [nM] | IC50 [1] [nM] | IC50 ([2]; 40 minutes at room temperature) [nM] | IC50 (recombinant Aurora A) [nM] | IC50 [2, 3] [nM] | SMILES | GI50 (HCT116 cells; read-out: GI50 HCT116 cell growth) [nM] | IC50 (HCT116 cells; read-out: IC50 values in this assay (HCT116 cell growth)) [nM]
≤ 1000 | ≤ 100 | ≤ 100 |  |  | Cc1cc(Nc2cc(N3CCN(C)CC3)nc(-c3ccc(F)cc3F)n2)n[nH]1 [Example 172, 2-(2,4-difluorophenyl)-N-(5-methyl-1H-pyrazol-3-yl)-6-(4-methylpiperazin-1-yl)pyrimidin-4-amine] | ≤ 1000 | 
 | ≤ 100 |  | ≤ 100 | ≤ 1000 | COc1ccc(-c2nc(Nc3cc(C)[nH]n3)cc(NC3CCOCC3)n2)cc1 [Compound 28, 2-(4-methoxyphenyl)-N^4-(5-methyl-1H-pyrazol-3-yl)-N^6-(tetrahydro-2H-pyran-4-yl)pyrimidine-4,6-diamine] |  | 1000 to 10000
